These results are taken from patent US5760016A, “Use of mono-3,6-anhydrocyclodextrins for solubilizing a hydrophobic compound and for controlling the purity of an enantiomer and process for the preparation of these cyclodextrins” (priority 1993, dated 1998).

The conditions of data set [1]: background; cited from earlier work.
The nature of data set [2]: Hemolysis of human erythrocytes by the cyclodextrin derivative. In kind it is cell-based. The following applies: erythrocytes; 5 mmole/l, 0.4 ml of human erythrocyte suspension, pH 7.4, 30 min, 37° C.; read-out: hemolysis percentage.
In another data set the test system is human erythrocytes. The data set is described as above. In kind it is cell-based. Particulars: 50 mmole/l.
The nature of another data set: physchem. The following applies: water.
Data set [3] can be described thus: Solubility in water of cyclodextrins.
Data set [4] is described as follows: Solubility of prednisolone in water, alone or in the presence of a cyclodextrin. The data set is classed as physicochemical. Here is the method: 10 μmole of mono-3,6-anhydrocyclomaltoheptaose prepared in example 1 are dissolved in 1 ml of pure water (apyrogenic water for injections) and addition takes place of 5 μmole of prednisolone in the form of a 50 mmole/l concentrated solution in acetone. The acetone is eliminated under nitrogen bubbling and the solution lyophilized.
The residual solid, which contains 10 μmole of the cyclodextrin derivative and 5 μmole of prednisolone, is redissolved in the minimum of water at 25° C.

The conditions of data set [5]: 25° C., without cyclodextrin; cited from earlier work.

In brackets after ≈: the same amount, converted by molar mass.

Take `COC[C@H]1O[C@@H]2O[C@H]3[C@H](O)[C@@H](OC)[C@@H](O[C@H]4[C@H](O)[C@@H](OC)[C@@H](O[C@H]5[C@H](O)[C@@H](OC)[C@@H](O[C@H]6[C@H](O)[C@@H](OC)[C@@H](O[C@H]7[C@H](O)[C@@H](OC)[C@@H](O[C@H]8[C@H](O)[C@@H](OC)[C@@H](O[C@H]1[C@H](O)[C@H]2OC)O[C@@H]8COC)O[C@@H]7COC)O[C@@H]6COC)O[C@@H]5COC)O[C@@H]4COC)O[C@@H]3COC` [2,6-dimethyl-β-cyclodextrin]: in data set [1], the “solubilizing properties for hydrophobic organic compounds” value is “good properties of solubilizing hydrophobic, organic compounds”.
A word on the solubility: it is how much of the substance goes into solution per volume. `OC[C@H]1O[C@@H]2O[C@H]3[C@H](O)[C@@H](O)[C@@H](O[C@H]4[C@H](O)[C@@H](O)[C@@H](O[C@H]5[C@@H]6OC[C@H]5O[C@H](O[C@H]5[C@H](O)[C@@H](O)[C@@H](O[C@H]7[C@H](O)[C@@H](O)[C@@H](O[C@H]8[C@H](O)[C@@H](O)[C@@H](O[C@H]1[C@H](O)[C@H]2O)O[C@@H]8CO)O[C@@H]7CO)O[C@@H]5CO)[C@@H]6O)O[C@@H]4CO)O[C@@H]3CO` [mono-3,6-anhydrocyclomaltoheptaose]: the hemolysis at 0.5 h, 5000 µM in data set [2] worked out at 0%. The “hemolytic properties at much higher concentrations” value in the data set with human erythrocytes is given as “no hemolysis detectable”. In “physchem”, the solubility worked out at 520 mg/mL (≈ 466 mM). The “solubility in water relative to .chi. and γ-cyclodextrins” value in data set [3] (ratio to .chi. and γ-cyclodextrins) is “at least twice”. In data set [3] (ratio to original cyclodextrin (18 g/l), 25° C.), the “solubility in water relative to the original cyclodextrin” value was roughly 30 times.
Take `C[C@]12C=CC(=O)C=C1CC[C@@H]1[C@@H]2[C@@H](O)C[C@@]2(C)[C@H]1CC[C@]2(O)C(=O)CO` [prednisolone]: the solubility in data set [4] (25° C., in the presence of mono-3,6-anhydrocyclomaltoheptaose at 200 mmole/l, read-out: maximum prednisolone solubility in water) stood at 100 mM; in data set [4] (prednisolone solubility in the presence of β-cyclodextrin, same conditions, with β-cyclodextrin) it was 9 mM. Moreover, the “solubility in water of prednisolone” value in data set [5] was 0.25 mg/mL.
As for `OC[C@H]1O[C@@H]2O[C@H]3[C@H](O)[C@@H](O)[C@@H](O[C@H]4[C@H](O)[C@@H](O)[C@@H](O[C@H]5[C@H](O)[C@@H](O)[C@@H](O[C@H]6[C@H](O)[C@@H](O)[C@@H](O[C@H]7[C@H](O)[C@@H](O)[C@@H](O[C@H]8[C@H](O)[C@@H](O)[C@@H](O[C@H]1[C@H](O)[C@H]2O)O[C@@H]8CO)O[C@@H]7CO)O[C@@H]6CO)O[C@@H]5CO)O[C@@H]4CO)O[C@@H]3CO` [β-cyclodextrin, cyclomaltoheptaose], the hemolysis at 0.5 h, 5000 µM in data set [2] worked out at 50%.
